For assay [1], the target named is T1, Kappa-type opioid receptor (Homo sapiens, UniProt P41145). The assay can be described thus: Antagonist activity at kappa opioid receptor (unkown origin) expressed in CHO cell membranes assessed as inhibition of Dyn A-(1-13)NH2 stimulated [35S]GTPgammaS binding incubated for 90 mins by liquid scintillation counting method. It is filed as functional. Particulars: Membrane, filed as antagonist. On the technique in general: GTPγS resists hydrolysis and so accumulates on activated G proteins.

The species entered for assay [2] is Homo sapiens. The assay can be described thus: Selectivity index, ratio of Ki for displacement of [3H]-DAMGO from MOR (unknown origin) expressed in CHO cells to Ki for displacement of [3H]-Diprenorphine from KOR (unknown origin) expressed in CHO cells. The assay is classed as cell-based.
The target of assay [3] is Mu-type opioid receptor (Homo sapiens, UniProt P35372). The experiment in a line: Displacement of [3H]-DAMGO from mu opioid receptor (unknown origin) expressed in CHO cells incubated for 90 mins in presence of peptidase inhibitors. It is filed as cell-based.
Assay [4] concerns the target T1, Kappa-type opioid receptor. The experiment in a line: Displacement of [3H]-Diprenorphine from kappa opiod receptor (unknown origin) expressed in CHO cells incubated for 90 mins in presence of peptidase inhibitors. It is filed as cell-based. Background: In a radioligand displacement assay an active substance lowers the binding of a labelled ligand.

Each structure is given as a SMILES string. Square brackets hold non-standard residues; d marks the D form. Peptide text beside a SMILES is read from it.

T1 sequence (P41145 whole entry): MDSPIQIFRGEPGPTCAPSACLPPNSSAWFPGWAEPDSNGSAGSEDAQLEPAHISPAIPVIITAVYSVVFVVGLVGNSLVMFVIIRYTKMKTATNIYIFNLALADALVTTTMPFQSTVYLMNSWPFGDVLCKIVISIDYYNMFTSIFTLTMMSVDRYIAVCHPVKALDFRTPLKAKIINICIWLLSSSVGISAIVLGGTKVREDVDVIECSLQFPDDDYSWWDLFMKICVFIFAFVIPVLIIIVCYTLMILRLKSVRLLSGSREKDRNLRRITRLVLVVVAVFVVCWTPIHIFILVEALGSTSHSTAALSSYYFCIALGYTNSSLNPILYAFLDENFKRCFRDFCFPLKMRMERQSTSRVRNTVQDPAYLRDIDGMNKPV
Mu-type opioid receptor, sequence (P35372 whole entry): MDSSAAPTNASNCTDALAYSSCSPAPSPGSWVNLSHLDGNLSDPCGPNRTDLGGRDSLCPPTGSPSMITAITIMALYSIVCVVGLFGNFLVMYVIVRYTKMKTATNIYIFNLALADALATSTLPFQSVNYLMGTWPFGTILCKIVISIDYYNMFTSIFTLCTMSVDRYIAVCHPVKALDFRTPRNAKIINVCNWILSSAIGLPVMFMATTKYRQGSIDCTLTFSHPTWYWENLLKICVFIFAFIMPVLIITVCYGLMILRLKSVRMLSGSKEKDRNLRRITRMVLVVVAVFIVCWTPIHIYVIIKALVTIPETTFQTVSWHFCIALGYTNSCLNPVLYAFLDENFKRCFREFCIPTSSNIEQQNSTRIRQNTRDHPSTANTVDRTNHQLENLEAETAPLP

As a reminder, the Kb is the equilibrium dissociation constant of an antagonist, usually derived from a functional assay. For orientation: Ki means the dissociation constant of the complex between target and ligand, obtained from inhibition or displacement. On to `CC(=O)N[C@H]1Cc2ccc(cc2)OC/C=C/COc2ccc(cc2)C[C@@H](C(=O)N[C@@H](Cc2ccccc2)C(=O)N[C@@H](CCCNC(=N)N)C(=O)N[C@@H](CC(C)C)C(=O)N[C@@H](CCCNC(=N)N)C(=O)N[C@@H](CCCNC(=N)N)C(=O)N[C@H](C)C(=O)N[C@@H](CCCNC(=N)N)C(=O)N2CCC[C@H]2C(=O)N[C@@H](CCCCN)C(N)=O)NC1=O`, for which, in assay [1], the Kb was determined as 288 nM. For the same compound, in assay [2], the Ratio Ki turned out to be 123. The results for the Ki in assay [3] and in assay [4] were 1430 nM and 11.7 nM, respectively.
As to `C=CCOc1ccc(C[C@H](NC(=O)[C@H](Cc2ccccc2)NC(C)=O)C(=O)N[C@@H](Cc2cccc(OCC=C)c2)C(=O)N[C@@H](CCCNC(=N)N)C(=O)N[C@@H](CC(C)C)C(=O)N[C@@H](CCCNC(=N)N)C(=O)N[C@@H](CCCNC(=N)N)C(=O)N[C@H](C)C(=O)N[C@@H](CCCNC(=N)N)C(=O)N2CCC[C@H]2C(=O)N[C@@H](CCCCN)C(N)=O)cc1`, in assay [2], the Ratio Ki worked out at 118. The Ki in assay [3] amounted to 1380 nM; in assay [4], 11.7 nM.
For `CC(=O)N[C@@H](Cc1ccccc1)C(=O)N[C@H]1Cc2ccc(cc2)OC/C=C/COc2cccc(c2)C[C@@H](C(=O)N[C@@H](CCCNC(=N)N)C(=O)N[C@@H](CC(C)C)C(=O)N[C@@H](CCCNC(=N)N)C(=O)N[C@@H](CCCNC(=N)N)C(=O)N[C@H](C)C(=O)N[C@@H](CCCNC(=N)N)C(=O)N2CCC[C@H]2C(=O)N[C@@H](CCCCN)C(N)=O)NC1=O`, in assay [2], the Ratio Ki is 31. The Ki stood at 607 nM in assay [3] and 19.8 nM in assay [4].
For `CC(=O)N[C@H]1Cc2ccc(cc2)OC/C=C/COc2cccc(c2)C[C@@H](C(=O)N[C@@H](Cc2ccccc2)C(=O)N[C@@H](CCCNC(=N)N)C(=O)N[C@@H](CC(C)C)C(=O)N[C@@H](CCCNC(=N)N)C(=O)N[C@@H](CCCNC(=N)N)C(=O)N[C@H](C)C(=O)N[C@@H](CCCNC(=N)N)C(=O)N2CCC[C@H]2C(=O)N[C@@H](CCCCN)C(N)=O)NC1=O` the same measures were 9, 501 nM and 56.7 nM.
As to `C=CCOc1ccc(C[C@H](NC(C)=O)C(=O)N[C@@H](Cc2cccc(OCC=C)c2)C(=O)N[C@@H](Cc2ccccc2)C(=O)N[C@@H](CCCNC(=N)N)C(=O)N[C@@H](CC(C)C)C(=O)N[C@@H](CCCNC(=N)N)C(=O)N[C@@H](CCCNC(=N)N)C(=O)N[C@H](C)C(=O)N[C@@H](CCCNC(=N)N)C(=O)N2CCC[C@H]2C(=O)N[C@@H](CCCCN)C(N)=O)cc1`, the Ratio Ki in assay [2] is 8. The figures for the Ki in assay [3] and in assay [4] were 490 nM and 62.2 nM, respectively.
`CC(=O)N[C@@H](Cc1ccccc1)C(=O)N[C@H]1Cc2cccc(c2)OC/C=C/COc2ccc(cc2)C[C@@H](C(=O)N[C@@H](CCCNC(=N)N)C(=O)N[C@@H](CC(C)C)C(=O)N[C@@H](CCCNC(=N)N)C(=O)N[C@@H](CCCNC(=N)N)C(=O)N[C@H](C)C(=O)N[C@@H](CCCNC(=N)N)C(=O)N2CCC[C@H]2C(=O)N[C@@H](CCCCN)C(N)=O)NC1=O`: the Ratio Ki in assay [2] was 50. In addition, the Ki in assay [3] is 1960 nM; in assay [4], 39.2 nM.
Regarding `C=CCOc1ccc(C[C@H](NC(=O)[C@H](Cc2cccc(OCC=C)c2)NC(=O)[C@H](Cc2ccccc2)NC(C)=O)C(=O)N[C@@H](CCCNC(=N)N)C(=O)N[C@@H](CC(C)C)C(=O)N[C@@H](CCCNC(=N)N)C(=O)N[C@@H](CCCNC(=N)N)C(=O)N[C@H](C)C(=O)N[C@@H](CCCNC(=N)N)C(=O)N2CCC[C@H]2C(=O)N[C@@H](CCCCN)C(N)=O)cc1`, the Ratio Ki in assay [2] turned out to be 32. The Ki in assay [3] came out at 1330 nM; in assay [4] it was 41.2 nM.
Regarding `C=CCOc1ccc(C[C@H](NC(=O)[C@H](Cc2cccc(OCC=C)c2)NC(C)=O)C(=O)N[C@@H](Cc2ccccc2)C(=O)N[C@@H](CCCNC(=N)N)C(=O)N[C@@H](CC(C)C)C(=O)N[C@@H](CCCNC(=N)N)C(=O)N[C@@H](CCCNC(=N)N)C(=O)N[C@H](C)C(=O)N[C@@H](CCCNC(=N)N)C(=O)N2CCC[C@H]2C(=O)N[C@@H](CCCCN)C(N)=O)cc1`, in assay [2], the Ratio Ki was found to be 11. The Ki is 478 nM in assay [3] and 43.2 nM in assay [4].
For `CC(=O)N[C@@H](Cc1ccccc1)C(=O)N[C@H]1Cc2cccc(c2)OC/C=C\COc2cccc(c2)C[C@@H](C(=O)N[C@@H](CCCNC(=N)N)C(=O)N[C@@H](CC(C)C)C(=O)N[C@@H](CCCNC(=N)N)C(=O)N[C@@H](CCCNC(=N)N)C(=O)N[C@H](C)C(=O)N[C@@H](CCCNC(=N)N)C(=O)N2CCC[C@H]2C(=O)N[C@@H](CCCCN)C(N)=O)NC1=O`, the Ratio Ki in assay [2] came out at 54. Also, the Ki is 828 nM in assay [3] and 15.4 nM in assay [4].
As to `C=CCOc1cccc(C[C@H](NC(=O)[C@H](Cc2ccccc2)NC(C)=O)C(=O)N[C@@H](Cc2cccc(OCC=C)c2)C(=O)N[C@@H](CCCNC(=N)N)C(=O)N[C@@H](CC(C)C)C(=O)N[C@@H](CCCNC(=N)N)C(=O)N[C@@H](CCCNC(=N)N)C(=O)N[C@H](C)C(=O)N[C@@H](CCCNC(=N)N)C(=O)N2CCC[C@H]2C(=O)N[C@@H](CCCCN)C(N)=O)c1`, the Ratio Ki in assay [2] amounted to 255. For the same compound, the Ki in assay [3] is 838 nM; in assay [4], 3.3 nM.
As to `C=CCOc1cccc(C[C@H](NC(C)=O)C(=O)N[C@@H](Cc2cccc(OCC=C)c2)C(=O)N[C@@H](Cc2ccccc2)C(=O)N[C@@H](CCCNC(=N)N)C(=O)N[C@@H](CC(C)C)C(=O)N[C@@H](CCCNC(=N)N)C(=O)N[C@@H](CCCNC(=N)N)C(=O)N[C@H](C)C(=O)N[C@@H](CCCNC(=N)N)C(=O)N2CCC[C@H]2C(=O)N[C@@H](CCCCN)C(N)=O)c1`, the Ratio Ki in assay [2] came out at 7. In addition, the Ki worked out at 491 nM in assay [3] and 65.8 nM in assay [4].
On to `CC(=O)N[C@@H](Cc1ccccc1)C(=O)N[C@@H](Cc1ccccc1)C(=O)N[C@@H](Cc1ccccc1)C(=O)N[C@@H](CCCNC(=N)N)C(=O)N[C@@H](CC(C)C)C(=O)N[C@@H](CCCNC(=N)N)C(=O)N[C@@H](CCCNC(=N)N)C(=O)N[C@H](C)C(=O)N[C@@H](CCCNC(=N)N)C(=O)N1CCC[C@H]1C(=O)N[C@@H](CCCCN)C(N)=O` (Ac-FFFRLRR[dA]RPK-NH2), for which the Ratio Ki in assay [2] is 174. In addition, the inhibition constant Ki in assay [3] is 1740 nM.
On to `C=CCOc1ccc(C[C@H](NC(=O)[C@H](Cc2ccccc2)NC(C)=O)C(=O)N[C@@H](Cc2ccc(OCC=C)cc2)C(=O)N[C@@H](CCCNC(=N)N)C(=O)N[C@@H](CC(C)C)C(=O)N[C@@H](CCCNC(=N)N)C(=O)N[C@@H](CCCNC(=N)N)C(=O)N[C@H](C)C(=O)N[C@@H](CCCNC(=N)N)C(=O)N2CCC[C@H]2C(=O)N[C@@H](CCCCN)C(N)=O)cc1`, for which the Ratio Ki in assay [2] was 65. Moreover, the results for the Ki in assay [3] and in assay [4] were 1220 nM and 18.9 nM, respectively.
For the compound `C=CCOc1ccc(C[C@H](NC(C)=O)C(=O)N[C@@H](Cc2ccc(OCC=C)cc2)C(=O)N[C@@H](Cc2ccccc2)C(=O)N[C@@H](CCCNC(=N)N)C(=O)N[C@@H](CC(C)C)C(=O)N[C@@H](CCCNC(=N)N)C(=O)N[C@@H](CCCNC(=N)N)C(=O)N[C@H](C)C(=O)N[C@@H](CCCNC(=N)N)C(=O)N2CCC[C@H]2C(=O)N[C@@H](CCCCN)C(N)=O)cc1`, in assay [2], the Ratio Ki came to 18. Further, the Ki is 221 nM in assay [3] and 12.1 nM in assay [4].
Turning to `CC(=O)N[C@H]1Cc2cccc(c2)OC/C=C/COc2cccc(c2)C[C@@H](C(=O)N[C@@H](Cc2ccccc2)C(=O)N[C@@H](CCCNC(=N)N)C(=O)N[C@@H](CC(C)C)C(=O)N[C@@H](CCCNC(=N)N)C(=O)N[C@@H](CCCNC(=N)N)C(=O)N[C@H](C)C(=O)N[C@@H](CCCNC(=N)N)C(=O)N2CCC[C@H]2C(=O)N[C@@H](CCCCN)C(N)=O)NC1=O`, in assay [2], the Ratio Ki was 24. Also, the Ki in assay [3] amounted to 1630 nM; in assay [4], 68.2 nM.
In the case of `CC(=O)N[C@@H](Cc1ccccc1)C(=O)N[C@H]1Cc2ccc(cc2)OC/C=C/COc2ccc(cc2)C[C@@H](C(=O)N[C@@H](CCCNC(=N)N)C(=O)N[C@@H](CC(C)C)C(=O)N[C@@H](CCCNC(=N)N)C(=O)N[C@@H](CCCNC(=N)N)C(=O)N[C@H](C)C(=O)N[C@@H](CCCNC(=N)N)C(=O)N2CCC[C@H]2C(=O)N[C@@H](CCCCN)C(N)=O)NC1=O`, the antagonist dissociation constant (Kb) in assay [1] came out at 15 nM. The Ratio Ki in assay [2] stood at 93. In addition, the figures for the Ki in assay [3] and in assay [4] were 1370 nM and 14.7 nM, respectively.
On to `CC(=O)N[C@H]1Cc2cccc(c2)OC/C=C/COc2ccc(cc2)C[C@@H](C(=O)N[C@@H](Cc2ccccc2)C(=O)N[C@@H](CCCNC(=N)N)C(=O)N[C@@H](CC(C)C)C(=O)N[C@@H](CCCNC(=N)N)C(=O)N[C@@H](CCCNC(=N)N)C(=O)N[C@H](C)C(=O)N[C@@H](CCCNC(=N)N)C(=O)N2CCC[C@H]2C(=O)N[C@@H](CCCCN)C(N)=O)NC1=O`, for which the Ratio Ki in assay [2] worked out at 22. Also, the Ki is 657 nM in assay [3] and 29.2 nM in assay [4].

Source of the values: ChEMBL document CHEMBL5055617, “Conformational Constraint between Aromatic Residue Side Chains in the "Message" Sequence of the Peptide Arodyn Using Ring Closing Metathesis Results in a Potent and Selective Kappa Opioid Receptor Antagonist” (J Med Chem, 2021).
